Source: ChEMBL document CHEMBL4665904, “Novel APOL1 Inhibitors for Treating Kidney Diseases” (ACS Med Chem Lett, 2020)

How the values were obtained:
[1] = tested on: Trypanosoma brucei; assay: Trypanocidal activity against bloodstream forms of Trypanosoma brucei using recombinant APOL1 assessed as cell viability incubated for 16 hrs by cell lysis based alamar blue assay; assay type: functional, organism-based
[2] = molecular target: T1, Apolipoprotein L1 (Homo sapiens, UniProt O14791); assay: Inhibition of APOL1 (unknown origin) in HEK293 cells assessed as thallium influx incubated for 30 mins by FLIPR based thallium influx assay; assay type: cell-based
T1 sequence (O14791 whole entry): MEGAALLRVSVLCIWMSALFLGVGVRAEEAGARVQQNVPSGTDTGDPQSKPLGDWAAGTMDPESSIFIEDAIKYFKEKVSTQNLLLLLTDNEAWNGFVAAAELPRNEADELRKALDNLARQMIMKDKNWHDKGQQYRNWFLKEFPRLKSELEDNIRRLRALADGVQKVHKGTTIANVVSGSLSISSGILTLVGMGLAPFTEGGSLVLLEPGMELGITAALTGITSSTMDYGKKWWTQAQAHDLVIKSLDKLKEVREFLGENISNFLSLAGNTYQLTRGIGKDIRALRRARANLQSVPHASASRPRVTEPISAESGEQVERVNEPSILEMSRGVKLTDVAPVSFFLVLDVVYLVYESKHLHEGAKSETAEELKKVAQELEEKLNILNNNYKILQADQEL

IC50 [2] | Structure (SMILES) | IC50 [1]
< 250 nM | O=C(CCc1c(-c2ccccc2)[nH]c2c(F)cccc12)N[C@@H]1C(=O)NC[C@H]1O | < 250 nM
< 250 nM | O=C(CCc1c(-c2ccc(F)cc2)[nH]c2c(F)cc(F)cc12)N[C@@H]1C(=O)NC[C@@H]1O | < 250 nM
< 250 nM | O=C(CCc1c(-c2ccccc2)[nH]c2cc(F)c(F)cc12)N[C@@H]1C(=O)NC[C@H]1O | < 250 nM
< 250 nM | COc1ccc(-c2[nH]c3ccccc3c2CCC(=O)N[C@@H]2C(=O)NC[C@H]2O)cc1 | < 250 nM
< 250 nM | N#Cc1ccc(-c2[nH]c3c(F)cc(F)cc3c2CCC(=O)N[C@H]2CCNC2=O)cc1 | < 250 nM
< 250 nM | N#Cc1cc(F)cc2c(CCC(=O)N[C@@H]3C(=O)NC[C@H]3O)c(-c3ccc(F)cc3)[nH]c12 | < 250 nM
